Test results: patent US10157261B2, “Transcriptome-wide design of selective, bioactive small molecules targeting RNA” (The Scripps Research Institute, priority 2013, dated 2018)

Legend:
[1] = tested on: pri-miR-96; assay: qRT-PCR of pri-miR-96 in MCF7 cells; format: cell-based, human
Method: (§1) Pri-, pre-, and mature miR-96 RT-PCR products were analyzed on a denaturing 10% polyacrylamide gel stained with ethidium bromide. Expression levels were normalized to GAPDH.

[2] = tested on: FOXO1 protein; assay: Western blotting; format: cell-based, human; conditions: 50 nM, MCF7 cells
Method: MCF7 cells were grown in 6-well plates to ˜80% confluency in complete growth medium. […] Total protein was extracted using M-PER Mammalian Protein Extraction Reagent (Pierce Biotechnology) using the manufacturer's protocol. Extracted total protein was quantified using a Micro BCA Protein Assay Kit (Pierce Biotechnology). Approximately 40 μg of total protein was resolved on an 8% SDS-polyacrylamide gel, and then transferred to a PVDF membrane. The membrane was briefly washed with 1× Tris-buffered saline (TBS), and then blocked in 5% milk in 1×TBST (1×TBS containing 0.1% Tween-20) for 1 h at room temperature. The membrane was then incubated in 1:1000 FOXO1 primary antibodies (Cell Signaling Technology) in 1×TBST containing 3% BSA overnight at 4° C. The membrane was washed with 1×TBST and incubated with 1:2000 anti-rabbit IgG horseradish-peroxidase secondary antibody conjugate (Cell Signaling Technology) in 1×TBS for 1 h at room temperature. After washing with 1×TBST, protein expression was quantified using SuperSignal West Pico Chemiluminescent Substrate (Pierce Biotechnology) per the manufacturer's protocol. The membrane was then stripped using 1× Stripping Buffer (200 mM glycine, pH 2.2 and 0.1% SDS) followed by washing in 1×TBS. […] Image J software from the National Institutes of Health was used to quantify band intensities.

[3] = tested on: miR-96; assay: qRT-PCR of mature miRNA in MCF7 cells; format: cell-based, human
Method: (§2) MCF7 cells were cultured in either 6-well or 12-well plates, and total RNA was extracted using TRIzol LS reagent (Ambion) per the manufacturer's protocol. Approximately 200 ng of total RNA was used in reverse transcription (RT) reactions, which were completed using a Taqman MicroRNA RT Kit (Applied Biosystems) or a miScript II RT kit (Qiagen) per the manufacturer's protocol. qRT-PCR was performed on a 7900HT Fast Real Time PCR System (Applied Biosystem) using Taqman Universal PCR Master Mix or power SYBR green master mix (Applied Biosystems). All primer sets for mature miRNAs were purchased from Applied Biosystems. The expression level of mature miRNAs was normalized to U6 small nuclear RNA.
as §1

[4] = target: H Hairpin (DNA hairpin); assay: in solution, fluorescence-based binding affinity assay; conditions: read-out: Dissociation constants, H Hairpin
Method: (§3) Dissociation constants were determined using an in solution, fluorescence-based assay (Disney et al., J. Am. Chem. Soc. 130, 11185-11194 (2008)). The RNA of interest was folded in 1× Assay Buffer (8 mM Na2HPO4, pH 7.0, 190 mM NaCl, 1 mM EDTA and 40 μg/mL BSA) by heating at 60° C. for 5 min and slowly cooling to room temperature. A selected fluorescently labeled compound was added to a final concentration of 50 nM for compounds 1-Fl, 4-Fl, and 5-Fl or 500 nM for compound 2. Serial dilutions (1:2) were then completed in 1× Assay Buffer supplemented with 50 nM of compounds 1-Fl, 4-Fl, or 5-Fl or 500 nM of 2. The solutions were incubated for 30 min at room temperature and then transferred to a 96-well plate and fluorescence intensity measured. The change in fluorescence intensity as a function of RNA concentration was fit to the following equation (Wang & Rando, Chem. Biol. 2, 281-290. (1995)): I=I0+0.5Δε(([FL]0+[RNA]0+Kt)−(([FL]0+[RNA]0+Kt)^2−4[FL]0[RNA]0)^0.5) where I and I0 are the observed fluorescence intensity in the presence and absence of RNA respectively, Δε is the difference between the fluorescence intensity in the absence of RNA and in the presence of infinite RNA concentration, [FL]0 and [RNA]0 are the concentrations of small molecule and RNA, respectively, and Kt is the dissociation constant. […]

[5] = target: C1 (cassette RNA); assay: as above; conditions: read-out: Dissociation constants, C1
Method: as §3

[6] = tested on: pre-miR-96; assay: qRT-PCR of pre-miR-96 in MCF7 cells; format: cell-based, human; conditions: 50 nM
Method: as §1

[7] = tested on: MCF10A (healthy breast cells); assay: Annexin V/PI assay; format: cell-based, human; conditions: 50 nM, 72 hours
Method: Annexin V/PI Assays: MDA MB 231 or MCF-10A cells were grown in 6-well plates to 40-50% confluency. The cells were incubated with 50 nM of small molecule for 72 h and then detached from the surface using accutase. They were washed twice each with ice cold 1×DPBS and 1× Annexin Binding Buffer (50 mM Hepes (pH 7.4), 700 mM NaCl and 12.5 mM CaCl2). The cells were resuspended in 100 μL 1× Annexin Binding Buffer, and then 5 μL Annexin V-APC (eBioscience) were added. The solution was incubated for 10 min at room temperature followed by washing with 1× Annexin Binding Buffer. The cells were then stained with 1 μg/mL propidium iodide in 300 μL of 1× Annexin Binding Buffer for 15 min at room temperature. Flow cytometry was performed using a BD LSRII instrument (BD Biosciences). At least 10,000 events were used for analysis.

[8] = target: 5′UUU/3′AUA RNA (loop near the processing site of miRNA-96 precursor); assay: in solution, fluorescence-based binding affinity assay; set-up: species or system human
Method: (§4) Dissociation constants were determined using an in solution, fluorescence-based assay (Disney et al., J. Am. Chem. Soc. 130, 11185-11194 (2008)). The RNA of interest was folded in 1× Assay Buffer (8 mM Na2HPO4, pH 7.0, 190 mM NaCl, 1 mM EDTA and 40 μg/mL BSA) by heating at 60° C. for 5 min and slowly cooling to room temperature. A selected fluorescently labeled compound was added to a final concentration of 50 nM for compounds 1-Fl, 4-Fl, and 5-Fl or 500 nM for compound 2. Serial dilutions (1:2) were then completed in 1× Assay Buffer supplemented with 50 nM of compounds 1-Fl, 4-Fl, or 5-Fl or 500 nM of 2. The solutions were incubated for 30 min at room temperature and then transferred to a 96-well plate and fluorescence intensity measured. The change in fluorescence intensity as a function of RNA concentration was fit to the following equation (Wang & Rando, Chem. Biol. 2, 281-290. (1995)): I=I0+0.5Δε(([FL]0+[RNA]0+Kt)−(([FL]0+[RNA]0+Kt)^2−4[FL]0[RNA]0)^0.5) where I and I0 are the observed fluorescence intensity in the presence and absence of RNA respectively, Δε is the difference between the fluorescence intensity in the absence of RNA and in the presence of infinite RNA concentration, [FL]0 and [RNA]0 are the concentrations of small molecule and RNA, respectively, and Kt is the dissociation constant.
(§5) The targetable loops (motifs) were embedded into C1 (FIG. 1) so that affinity measurements could be completed. The secondary structures of the RNAs as predicted by RNAstructure (Mathews et al., Proc. Natl. Acad. Sci. U.S.A. 101, 7287-7292 (2004).) and representative binding curves are shown in (FIG. 4D-4I).

[9] = target: 5′CGAUU/3′GGUAUA RNA; assay: as above; set-up: species or system human; conditions: read-out: Dissociation constants, 5′CGAUU/3′GGUAUA
Method: as §4, §5

[10] = target: 5′CGA/3′GGU RNA; assay: as above; set-up: species or system human; conditions: read-out: Dissociation constants, 5′CGA/3′GGU
Method: as §4, §5

[11] = tested on: miR-182; assay: qRT-PCR of mature miRNA in MCF7 cells; format: cell-based, human; conditions: 40 μM, 20 h
Method: as §2

[12] = tested on: miR-183; assay: qRT-PCR of mature miRNA in MCF7 cells; format: cell-based, human; conditions: 40 μM, 20 h
Method: as §2

[13] = tested on: miR-210; assay: qRT-PCR of mature miRNA; format: cell-based, human; conditions: 500 nM, ACHN renal cancer cell line
Method: as §2

[14] = tested on: miR-96-FOXO1 luciferase model system; assay: Dual luciferase assay, miR-96 3′ UTR target; format: cell-based, human; conditions: 40 μM, MCF7 cells
Method: MCF7 cells were grown in 96-well plates to ˜80% confluency in complete growth medium. The cells were transiently transfected with 100 ng of plasmid encoding either the miR-96 3′ UTR target or a mutated 3′ UTR target using Lipofectamine 2000 per the manufacturer's protocol. Approximately 5 h post transfection, the small molecule of interest was added in complete growth medium, and the cells were incubated for another 20 h. Luciferase activity was then measured using a Dual Glo Luciferase Assay System (Promega) per the manufacturer's protocol. The values reported are the average of at least three measurements, and errors are the corresponding standard deviations.

[15] = tested on: MCF7 cells; assay: APO BrdU TUNEL assay; format: cell-based, human; conditions: 40 μM
Method: ON-TARGETplus SMARTpool FOXO1 siRNA and ONTARGETplus GAPD Control Pool were purchased from Dharmacon (Thermo Scientific) and were used at a final concentration of 100 nM. MCF7 cells were reverse transfected in a 6-well plate using Lipofectamine RNAiMAX reagent (Invitrogen) per the manufacturer's protocol.
MCF7 cells were grown in 6-well plates to 70-80% confluency. For experiments in which RNAi was used to knock down FOXO1 or GAPDH expression, the cells were first transfected as described above. Cells were treated with small molecules for 20 h followed by completion of an APO BrdU TUNEL assay (Molecular Probes) per the manufacturer's protocol. Flow cytometry was performed using a BD LSRII instrument (BD Biosciences). At least 10,000 events were used for analysis.

CCCN(CC(=O)N(CCC)CC(=O)N(CC(N)=O)Cc1cn(CCCNC(=O)CCCOc2c(C(C)(C)C)cc(-c3nc4cc(N5CCN(C)CC5)ccc4[nH]3)cc2C(C)(C)C)nn1)C(=O)CCCOc1cccc(-c2nc3ccc(-c4nc5ccc(N6CCN(C)CC6)cc5[nH]4)cc3[nH]2)c1 [BSH-2-H]
production of pri-microRNA-96 ([1]; 50 nM): boosting production of the pri-microRNA-96 | increase of pri-miRNA 96 ([1]; 24 hours): about 2.3 fold | increase in FOXO1 protein expressed [2]: 2.5 fold | production of mature microRNA-96 ([3]; 50 nM): significantly inhibited production of the mature microRNA-96 | effect on mature miRNA-96 levels ([3]; 1 μM, 0.5 μM and 0.05 μM, 24 hours): reduced mature miRNA-96 levels in a dose-dependent fashion | Kd [4]: > 50000 nM | Kd [5]: > 4000 nM | production of pre-microRNA-96 [6]: inhibiting production of the pre-microRNA-96 | effect on apoptosis in healthy breast cells [7]: no effect on apoptosis | Kd ([8]; read-out: Dissociation constants, 5′UUU/3′AUA): 1170 ± 279 nM | Kd [9]: 85 ± 11 nM | Kd [10]: 900 ± 200 nM

CN1CCN(c2ccc3nc(-c4ccc5nc(-c6cccc(OCCCC(=O)NCCCN=[N+]=[N-])c6)[nH]c5c4)[nH]c3c2)CC1 [Compound 2]
effect on miR-182 expression [11]: do not affect | effect on miR-183 expression [12]: do not affect | reduction of formation of miR-210 [13]: 60% | effect on miR-96 expression ([3]; 40 μM, 20 h): do not affect | effect on luciferase expression [14]: no effect | induction of apoptosis [15]: do not induce apoptosis | binding affinity for the miR-96 precursor [8]: lack of binding affinity

C#CCCCC(=O)NCC1O[C@H](O[C@@H]2C(N)C[C@@H](N)C(O[C@@H]3OC(CO)[C@H](O)C(N)C3O)[C@H]2O)C(O)[C@@H](O)[C@@H]1O (some centres unmarked) [Compound 3]
effect on miR-96 expression ([3]; 200 μM): a less, but significant, effect

CN1CCN(c2ccc3nc(-c4ccc(OCCCC(=O)NCCCN=[N+]=[N-])cc4)[nH]c3c2)CC1 [Compound 5]
effect on miR-182 expression [11]: do not affect | effect on miR-183 expression [12]: do not affect | effect on miR-96 expression ([3]; 40 μM, 20 h): do not affect | effect on luciferase expression [14]: no effect | induction of apoptosis [15]: do not induce apoptosis | binding affinity for the miR-96 precursor [8]: lack of binding affinity
